Test results from patent US20120196324A1, “Method for Producing an Antifungal Peptide in a Filamentous Fungal Host Cell” (NOVOZYMES A/S, priority 2007, published 2012).

Experiments:
[1] = system: gcs- mutants of A. oryzae ToC1512; assay: Tolerance to ETD151: growth in YCM with ETD151; type: cell-based, Aspergillus oryzae; conditions: high concentrations of ETD151 (maximum 5815 mg/L), 6 days, 7 gcs- mutants
Procedure: (§1) Selected strains were subjected to YCM with 0-5815 mg/L ETD151 for 6 days in order to test tolerance to ETD151.
(§2) To test the tolerance to ETD151, ToC1512, BECh2 and the 7 gcs^− mutants were grown in YCM with different amounts of ETD151 (maximum 5815 mg/L). […] One of the gcs^− mutants (no. 18) was hereafter selected and named PtSL1.

[2] = system: Aspergillus oryzae ToC1512; assay: Tolerance to ETD151: growth in YCM with ETD151; type: cell-based; conditions: YCM with different amounts of ETD151 (maximum 5815 mg/L), 6 days
Procedure: as §1, §2

[3] = system: Aspergillus oryzae BECh2; assay: Tolerance to ETD151: growth in YCM with ETD151; type: cell-based; conditions: YCM with different amounts of ETD151 (maximum 5815 mg/L), 6 days
Procedure: as §1, §2

[4] = system: Candida utilis; assay: Bioassay (plate assay, growth inhibition seen as clearing zones); type: cell-based; conditions: ETD151 expressed by BECh2 transformants (pPtSL4); Candida utilis as target organism
Procedure: ETD151 was diluted to 58 μg/ml in peptide dilution buffer (0.1% BSA, 0.01% Acetic Acid) and further on to 6 μg/ml and 0.6 μg/ml and used as control. Candida utilis was grown on YPD plates, A. oryzae on Cove N medium slants. An inoculum of fungal growth was resuspended in 0.1% Tween to an optical density of approx. 1 McFarland Unit. A NUNC-tube with 15 ml ⅓ PD agarose at approx. 42° C. was inoculated with approx. 6×10^6 CFU, mixed thoroughly and poured into a sterile 9 cm square dish (Falcon 351112) on a levelling table and allowed to solidify and set for 30 minutes. Ten μl of each of the peptide dilutions was added to the surface of the plate. The plates were incubated at 30° C. (or 37° C. as appropriate). The next day, growth was detected either by observing the inhibition zones by oblique illumination (or by adding 3 ml of a 3 mM MTT solution and leaving the plate for 1-2 hours at room temperature).
BECh2 was transformed with plasmid pPtSL4 and subjected to amdS medium. amdS resistant colonies were isolated as spores from single sporangies and subjected to amdS medium twice. From 45 BECh2 transformants, 43 were subjected to a Bioassay as described using Candida utilis as target organism and to SDS gel electrophoresis.

[5] = system: Candida albicans gcs-deletion mutants; conditions: glucosylceramide synthetase deficient Candida albicans; cited from earlier work
[6] = system: Pichia pastoris gcs-deletion mutants; conditions: glucosylceramide synthetase deficient Pichia pastoris; cited from earlier work

| Substance | growth of strain in presence of ETD151 [1] | growth of strain in presence of ETD151 [2] | growth of strain in presence of ETD151 [3] | growth inhibition in plate Bioassay [4] | susceptibility of gcs-deletion mutants [5] | susceptibility of gcs-deletion mutants [6] |
| --- | --- | --- | --- | --- | --- | --- |
| ETD151: heliomycin derivative, antifungal defensin peptide shown in SEQ ID NO: 7, expressed in Aspergillus oryzae (DKLIGSCVWGAVNYTSNCRAECKRRGYKGGHCGSFANVNCWCET; heliomycin derivative) | grew very well | did not grow at all | grew badly | clearing zones |  |  |
| RsAFP2: antifungal defensin (QKLCQRPSGTWSGVCGNNNACKNQCIRLEKARHGSCNYVFPAHKCICYFPC; UniProt P30230 30-80, looked up) |  |  |  |  | resistant | resistant |
